Reference: patent US10434147B2, “Treatment type 2 diabetes mellitus patients” (Sanofi-Aventis Deutschland GmbH, priority 2015, dated 2019)

What was measured:
[1] = tested on: Patients with Type 2 Diabetes Insufficiently Controlled with Insulin Glargine with or without Metformin; experiment: Body weight, 26-week study; format: in vivo, human; conditions: for Body weight, Change from baseline to Week 26 (LOCF), LS Mean (SE) / Body weight change to Week 26, LS Mean difference (SE) of Lixisenatide vs. the labelled insulin glulisine arm: ANCOVA; for Body weight, Change from baseline to Week 26 (LOCF), LS Mean (SE) / Body weight change to Week 26, LS Mean difference (SE) of Lixisenatide vs. the labelled insulin glulisine arm / Body weight, Baseline, Mean (SD) / Body weight, Baseline, Median / Body weight, Week 26 (LOCF), Mean (SD) / Body weight, Week 26 (LOCF), Median / Body weight, Change from baseline to Week 26 (LOCF), Mean (SD) / Body weight, Change from baseline to Week 26 (LOCF), Median: mITT population; for Body weight change to Week 26, LS Mean difference (SE) of Lixisenatide vs. the labelled insulin glulisine arm: p <.0001; for Body Weight, BL mean ± SD / Body Weight, Week 26 (LOCF) mean ± SD / Body Weight, LS mean ± SE change from BL / Body Weight, LS mean treatment difference (lixisenatide vs the labelled arm): mITT, Example 2 table; for Body weight, Baseline, Mean (SD) / Body weight, Baseline, Median: Baseline (before IMP); for Body Weight, LS mean ± SE change from BL / Body Weight, LS mean treatment difference (lixisenatide vs the labelled arm): Week 26; for Body Weight, LS mean treatment difference (lixisenatide vs the labelled arm): p < 0.0001
Excerpt: (§1) FIG. 6—Graphical study design. ^1 Insulin glargine should be injected subcutaneously once daily at dinner or breakfast time (according to patient's/investigators' preference). […] Meal used for insulin glulisine dosing should remain the same throughout the 26-week treatment period. ^4 Injection of insulin glulisine prior to breakfast, lunch and dinner.
(§2) Co-primary endpoints at 26 weeks were (1) non-inferiority (95% CI upper bound <0.4%) in HbA1c reduction with LIXI vs GLU-1 and (2) for LIXI vs GLU-3, either non-inferiority in HbA1c reduction (2a) OR superiority (one-sided α≤0.025) in body weight change (2b). FPG, PPG, IG dose, composite outcomes, AEs, and hypoglycemia were assessed.

[2] = tested on: Patients with Type 2 Diabetes Insufficiently Controlled with Insulin Glargine with or without Metformin; experiment: 2-h PPG post test meal, 26-week study; format: in vivo, human; conditions: subset of mITT treated before breakfast; for 2-h PPG post test meal, LS mean treatment difference (lixisenatide vs the labelled arm) / 2-h PPG post test meal, LS mean ± SE change from BL: Week 26
Experimental: as §2

[3] = tested on: Patients with Type 2 Diabetes Insufficiently Controlled with Insulin Glargine with or without Metformin; experiment: Insulin dose (insulin glargine, insulin glulisine), 26-week study; format: in vivo, human; conditions: for Insulin glargine dose change to Week 26, LS Mean difference (SE) of Lixisenatide vs. the labelled insulin glulisine arm / Insulin glargine dose, Change from baseline to Week 26 (LOCF), LS Mean (SE): ANCOVA; for Insulin glargine dose change to Week 26, LS Mean difference (SE) of Lixisenatide vs. the labelled insulin glulisine arm / Insulin glargine dose, Change from baseline to Week 26 (LOCF), LS Mean (SE) / Insulin glargine dose, Baseline, Mean (SD) / Insulin glargine dose, Baseline, Median / Insulin glargine dose, Week 26 (LOCF), Mean (SD) / Insulin glargine dose, Week 26 (LOCF), Median / Insulin glargine dose, Change from baseline to Week 26 (LOCF), Mean (SD) / Insulin glargine dose, Change from baseline to Week 26 (LOCF), Median: mITT population; for Insulin glargine dose, Baseline, Mean (SD) / Insulin glargine dose, Baseline, Median: Baseline (before IMP); for Insulin Glargine dose, LS mean + SE change from BL / Insulin Glargine dose, LS mean treatment difference (lixisenatide vs the labelled arm): Week 26
Excerpt: as §1, §2

[4] = tested on: Patients with Type 2 Diabetes Insufficiently Controlled with Insulin Glargine with or without Metformin; set-up: species or system human; conditions: in vivo
Excerpt: Clinical symptoms that are considered to result from a hypoglycemic episode are, e.g., increased sweating, nervousness, asthenia/weakness, tremor, dizziness, increased appetite, palpitations, headache, sleep disorder, confusion, seizures, unconsciousness, coma.
as §2

Substance | Body weight, Change from baseline to Week 26 (LOCF), LS Mean (SE) [1] | Body weight change to Week 26, LS Mean difference (SE) of Lixisenatide vs. the labelled insulin glulisine arm [1] | Body Weight, BL mean ± SD [1] [kg] | Body weight, Baseline, Mean (SD) [1] | Body weight, Baseline, Median [1] [kg] | Body weight, Week 26 (LOCF), Mean (SD) [1] | Body weight, Week 26 (LOCF), Median [1] [kg] | Body Weight, Week 26 (LOCF) mean ± SD [1] [kg] | Body Weight, LS mean ± SE change from BL [1] [kg] | Body Weight, LS mean treatment difference (lixisenatide vs the labelled arm) [1] [kg] | Body weight, Change from baseline to Week 26 (LOCF), Mean (SD) [1] | Body weight, Change from baseline to Week 26 (LOCF), Median [1] [kg] | 2-h PPG post test meal, BL (end run-in) mean ± SD [2] [mg/dL] | 2-h PPG post test meal, Week 26 (LOCF) mean ± SD [2] [mg/dL] | 2-h PPG post test meal, LS mean treatment difference (lixisenatide vs the labelled arm) [2] [mg/dL] | 2-h PPG post test meal, LS mean ± SE change from BL [2] [mg/dL] | Insulin glargine dose change to Week 26, LS Mean difference (SE) of Lixisenatide vs. the labelled insulin glulisine arm [3] | Insulin glargine dose, Change from baseline to Week 26 (LOCF), LS Mean (SE) [3] | Insulin Glargine dose, BL (end run-in) mean ± SD ([3]; mITT) [U/day] | Insulin glargine dose, Baseline, Mean (SD) [3] | other results
Insulin Glulisine TID: insulin glulisine three times daily, added to insulin glargine ± metformin (comparator arm) | 1.37 (0.271) kg | −1.99 (0.305) kg | 90.0 ± 17.2 | 90.00 (17.21) kg | 88.70 | 91.29 (17.27) kg | 90.50 | 91.3 ± 17.3 | 1.4 ± 0.3 | -2.0 | 1.29 (2.80) kg | 1.20 | 262 ± 63 | 229 ± 69 | -40 | -25 ± 11 | 3.83 (1.106) U | −3.13 (0.982) U | 65 ± 27 | 65.05 (27.01) U | Insulin glargine dose, Baseline, Median [3]: 60.67 U; Insulin Glargine dose, Week 26 (LOCF) mean ± SD ([3]; mITT): 61 ± 29 U/day; Insulin glargine dose, Week 26 (LOCF), Mean (SD) [3]: 61.16 (29.33) U; Insulin glargine dose, Week 26 (LOCF), Median [3]: 57.00 U; Insulin Glargine dose, LS mean + SE change from BL ([3]; mITT): −3.1 ± 1.0 U/day; Insulin Glargine dose, LS mean treatment difference (lixisenatide vs the labelled arm) ([3]; mITT): 3.9 U/day; Insulin glargine dose, Change from baseline to Week 26 (LOCF), Mean (SD) [3]: −3.89 (13.28) U; Insulin glargine dose, Change from baseline to Week 26 (LOCF), Median [3]: −4.00 U; Any symptomatic hypoglycemia: Number of events [4]: 600; Any symptomatic hypoglycemia: Number of events per 100 patient years [4]: 410.4 per 100 patient years; Any symptomatic hypoglycemia: Number of patients with events per 100 patient years [4]: 90.3 per 100 patient years; Documented Symptomatic Hypoglycemia at Week 26, % pts [4]: 44.6 (p = 0.001) % pts; Documented Symptomatic Hypoglycemia at Week 26, No. of events [4]: 595; Documented Symptomatic Hypoglycemia at Week 26, No. of events/pt years [4]: 4.1 events/pt years; Severe Hypoglycemia, no. of pts with events [4]: 0
Insulin Glulisine QD: insulin glulisine once daily, added to insulin glargine ± metformin (comparator arm) | 1.03 (0.276) kg | −1.66 (0.305) kg | 88.4 ± 15.9 | 88.37 (15.88) kg | 88.00 | 89.31 (16.27) kg | 88.40 | 89.3 ± 16.3 | 1.0 ± 0.3 | -1.7 | 0.94 (2.50) kg | 0.90 | 249 ± 63 | 220 ± 60 | -37 | -28 ± 11 | 0.76 (1.104) U | −0.06 (0.999) U | 65 ± 32 | 64.79 (32.09) U | Insulin glargine dose, Baseline, Median [3]: 58.00 U; Insulin Glargine dose, Screening (start run-in) mean ± SD ([3]; Screening (start run-in), mITT): 40 ± 22 U/day; Insulin Glargine dose, Week 26 (LOCF) mean ± SD ([3]; mITT): 64 ± 36 U/day; Insulin glargine dose, Week 26 (LOCF), Mean (SD) [3]: 63.89 (35.67) U; Insulin glargine dose, Week 26 (LOCF), Median [3]: 54.00 U; Insulin Glargine dose, LS mean + SE change from BL ([3]; mITT): −0.1 ± 1.0 U/day; Insulin Glargine dose, LS mean treatment difference (lixisenatide vs the labelled arm) ([3]; mITT): 0.8 U/day; Insulin glargine dose, Change from baseline to Week 26 (LOCF), Mean (SD) [3]: −0.91 (13.41) U; Insulin glargine dose, Change from baseline to Week 26 (LOCF), Median [3]: −1.33 U; Any symptomatic hypoglycemia: Number of events [4]: 395; Any symptomatic hypoglycemia: Number of events per 100 patient years [4]: 266.4 per 100 patient years; Any symptomatic hypoglycemia: Number of patients with events per 100 patient years [4]: 78.9 per 100 patient years; Documented Symptomatic Hypoglycemia at Week 26, % pts [4]: 37.5 (p = 0.144) % pts; Documented Symptomatic Hypoglycemia at Week 26, No. of events [4]: 384; Documented Symptomatic Hypoglycemia at Week 26, No. of events/pt years [4]: 2.6 events/pt years; Severe Hypoglycemia, no. of pts with events [4]: 2
